Measurements from US12084445B2, “Broad-spectrum carbapenems” (VenatoRx Pharmaceuticals, Inc., priority 2018, dated 2024).

How the values were obtained:
Assay type in all cases: cell-based
[1] = system: S. aureus ATCC 33591 (methicillin-resistant); test: broth microdilution MIC assay, S. aureus ATCC 33591; conditions: Staphylococcus aureus, ATCC33591; Table 4; S. aureus 33591; read-out: S. aureus 33591 MIC
Protocol: (§1) To determine the ability of test compounds to potentiate the inhibition of the growth of bacterial strains, classic cell-based broth microdilution MIC assays were employed. MIC assays are performed according to CLSI methods except where otherwise noted (CLSI, 2011 and CLSI, 2009). The reference strains S. aureus ATCC 29213 (methicillin sensitive), S. aureus ATCC 33591 (methicillin-resistant), E. coli ATCC 25922 (wild-type/QC strain), P. aeruginosa ATCC 27853 (wild-type/QC strain), and the clinical isolate P. aeruginosa PA 8 were used to determine the ability of the exemplary carbapenem compounds to inhibit bacterial growth. An expanded panel of methicillin resistance S. aureus (MRSA) and Pseudomonas was also used to determine the ability of exemplary carbapenem compounds to inhibit bacterial growth across a broader representation of those species. To determine activity in MRSA and in addition to S. aureus ATCC 33591, S. aureus USA 300, USA 400 and USA 600, some of the most common clones found to cause human infection, were also used. To further gauge the impact on the carbapenem compounds due to various resistance mechanisms in Pseudomonas, the following strains were included: P. aeruginosa 35151 (hyper-permeable strain), P. aeruginosa AmexAB-OprM (an efflux pump knockout), and P. aeruginosa PA 3 (a clinical isolate of reduced carbapenem susceptibility). Briefly, cryo-preserved bacterial cultures of clinical strains are streaked for isolation on appropriate agar medium, in this case Mueller Hinton II agar. Following incubation to allow formation of colonies, these plates are sealed with parafilm and stored refrigerated for up to two weeks. For preparation of assay inocula and to ensure low variability, at least 5 colonies are picked from the agar plates with an inoculating loop and aseptically transferred to a culture tube containing 3 mL of Mueller-Hinton Broth (supplemented with divalent cations to required levels based on Manufacturers' specification). The broth culture is grown for 3-5 hours at 37° C. with shaking at 200 rpm. Meanwhile, 2-fold serial dilutions of test compounds are conducted in a 96 well plate with a final volume of 75 μL per well at 2-fold the final desired concentration. After the dilution plates are set up the growing cultures are then diluted in a cuvette containing MH II broth and the optical density is measured at 600 nm. Inocula are diluted such that 75 μL of this culture in Mueller-Hinton Broth results in a starting bacterial concentration of 5×10^5 CFU/mL when added to the dilution plates. The plates are incubated 16-20 hours at 37° C. The MIC is read visually as the lowest concentration well with no bacterial growth.
(§2) Representative results are shown in Tables 3, 4, and 5 where A represents an MIC>32 μg/mL, B represents an MIC between 8 and 32 μg/mL inclusive, C represents an MIC between 1 and 4 μg/mL inclusive, and D represents an MIC of <1 μg/mL. NT=Not Tested.

[2] = system: E. coli ATCC 25922 (wild-type/QC strain); test: broth microdilution MIC assay, E. coli ATCC 25922; conditions: Escherichia coli, ATCC25922; Table 4; E. coli 25922; read-out: E. coli 25922 MIC
Protocol: as §1, §2

[3] = system: P. aeruginosa ATCC 27853 (wild-type/QC strain); test: broth microdilution MIC assay, P. aeruginosa ATCC 27853; conditions: Pseudomonas aeruginosa, ATCC27853; Table 5; P. aeruginosa 27853; read-out: P. aeruginosa 27853 MIC
Protocol: as §1, §2

S. aureus USA 300 = test: broth microdilution MIC assay, S. aureus USA 300; conditions: Staphylococcus aureus; Table 4; S. aureus USA300; read-out: S. aureus USA300 MIC
Protocol: as §1, §2

S. aureus USA600 = test: broth microdilution MIC assay, S. aureus USA 600; conditions: Staphylococcus aureus; Table 4; S. aureus USA600; read-out: S. aureus USA600 MIC
Protocol: as §1, §2

[4] = system: P. aeruginosa 35151 (hyper-permeable strain); test: broth microdilution MIC assay, P. aeruginosa 35151; conditions: Pseudomonas aeruginosa, read-out: P. aeruginosa 35151 MIC
Protocol: as §1, §2

[5] = system: P. aeruginosa ΔmexAB-OprM (an efflux pump knockout); test: broth microdilution MIC assay, P. aeruginosa ΔmexAB-OprM; conditions: Pseudomonas aeruginosa, 20 h, read-out: P. aeruginosa ΔmexAB-OprM MIC
Protocol: as §1, §2

Row | SMILES | MIC [1] [µg/mL] | MIC [2] [µg/mL] | MIC [3] [µg/mL] | MIC (S. aureus USA 300) [µg/mL] | MIC (S. aureus USA600) [µg/mL] | MIC [4] [µg/mL] | MIC [5] [µg/mL]
1 | C[C@@H](O)[C@H]1C(=O)N2C(C(=O)O)=C(S[C@@H]3CCN(CC4CCN(C(=O)CN)CC4)C3)[C@H](C)[C@H]12 [Example 47, (4R,5S,6S)-3-(((R)-1-((1-glycylpiperidin-4-yl)methyl)pyrrolidin-3-yl)thio)-6-((R)-1-hydroxyethyl)-4-methyl-7-oxo-1-azabicyclo[3.2.0]hept-2-ene-2-carboxylic acid] | 8 to 32 | < 1 | 1 to 4 | 1 to 4 | 1 to 4 | < 1 | 1 to 4
2 | CNCC(=O)N1CCC(CN2CC[C@@H](SC3=C(C(=O)O)N4C(=O)[C@H]([C@@H](C)O)[C@H]4[C@H]3C)C2)CC1 [Example 48, (4R,5S,6S)-6-((R)-1-hydroxyethyl)-4-methyl-3-(((R)-1-((1-(methylglycyl)piperidin-4-yl)methyl)pyrrolidin-3-yl)thio)-7-oxo-1-azabicyclo[3.2.0]hept-2-ene-2-carboxylic acid] | 8 to 32 | < 1 | 1 to 4 | 1 to 4 | 1 to 4 | < 1 | 1 to 4
3 | C[C@@H](O)[C@H]1C(=O)N2C(C(=O)O)=C(S[C@@H]3CCN(C[C@H]4CCN(C(=N)N)C4)C3)[C@H](C)[C@H]12 [Example 52, (4R,5S,6S)-3-(((R)-1-(((R)-1-carbamimidoylpyrrolidin-3-yl)methyl)pyrrolidin-3-yl)thio)-6-((R)-1-hydroxyethyl)-4-methyl-7-oxo-1-azabicyclo[3.2.0]hept-2-ene-2-carboxylic acid] | 1 to 4 | < 1 | 1 to 4 | < 1 | < 1 | < 1 | < 1
4 | C[C@@H](O)[C@H]1C(=O)N2C(C(=O)O)=C(S[C@@H]3CCN(C[C@@H]4CCN(C(=N)N)C4)C3)[C@H](C)[C@H]12 [Example 54, (4R,5S,6S)-3-(((R)-1-(((S)-1-carbamimidoylpyrrolidin-3-yl)methyl)pyrrolidin-3-yl)thio)-6-((R)-1-hydroxyethyl)-4-methyl-7-oxo-1-azabicyclo[3.2.0]hept-2-ene-2-carboxylic acid] | 1 to 4 | < 1 | 1 to 4 | < 1 | 1 to 4 | < 1 | < 1
5 | C[C@@H](O)[C@H]1C(=O)N2C(C(=O)O)=C(SC3CN(C4CCNCC4)C3)[C@H](C)[C@H]12 [Example 55, (4R,5S,6S)-6-((R)-1-hydroxyethyl)-4-methyl-7-oxo-3-((1-(piperidin-4-yl)azetidin-3-yl)thio)-1-azabicyclo[3.2.0]hept-2-ene-2-carboxylic acid] | 1 to 4 | < 1 | 1 to 4 | 1 to 4 | < 1 | < 1 | 1 to 4
6 | C[C@@H](O)[C@H]1C(=O)N2C(C(=O)O)=C(SC3CN(CCC4CCNCC4)C3)[C@H](C)[C@H]12 [Example 56, (4R,5S,6S)-6-((R)-1-hydroxyethyl)-4-methyl-7-oxo-3-((1-(2-(piperidin-4-yl)ethyl)azetidin-3-yl)thio)-1-azabicyclo[3.2.0]hept-2-ene-2-carboxylic acid] | 1 to 4 | < 1 | 1 to 4 | 1 to 4 | 1 to 4 | < 1 | 1 to 4
